# Test results: patent publication US20260055051A1, “Compound with anti-tumor activity, preparation method therefor, and use thereof” (Ocean University of China, priority 2022, published 2026)
# Legend:
# [1] = system: human breast cancer cell line MCF-7; experiment: In vitro tumor cell proliferation inhibition assay (SRB method), MCF-7; format: cell-based; details: for IC50: MCF7, 72 hours, SRB, mean of triplicate experiments, read-out: IC50 against MCF-7
# Description: (§1) Sulforhodamine B Colorimetric Method (SRB Method) and MTT Colorimetric Method (MTT Method)
# (§2) Human lung cancer cell line A549, human liver cancer cell line HepG2, human colon cancer cell line HCT116, human colon cancer cell line HT-29, human leukemia cell line K562, human cervical cancer cell line hela, and human breast cancer cell line MCF-7, all provided by the Shanghai Cell Bank, Chinese Academy of Sciences.
# (§3) A549, HepG2, HCT116, HT-29, K562, hela, and MCF-7 cells were cultured respectively in 1640, DMEM, 5A, 5A, 1640, DMEM, and 1640 culture media containing 10 wt % heat-inactivated FBS (fetal bovine serum), 2 mM L-glutamine, 100 U/mL penicillin and […] streptomycin, in a cell incubator at 37° C. and 5 vol % CO2. The medium was replaced every two days. After the A549, HepG2, HCT116, HT-29, hela, and MCF-7 cells were confluent, they were digested with 0.05% (w/v) trypsin-EDTA at 37° C., passaged, and maintained in the logarithmic growth phase suitable for testing. The K562 suspension cells were passaged without digestion, and maintained in the logarithmic growth phase suitable for testing. The A549, HepG2, HCT116, HT-29, K562, hela, and MCF-7 cells in the logarithmic growth phase were inoculated to 96-well plates at 5000, 5000, 5000, 5000, 6000, 5000, 5000 per well, respectively, and cultured at 37° C. for 24 h.
# (§4) Then various concentrations of test samples were added. The positive control group was doxorubicin hydrochloride (final concentration was 1 μM), the solvent control group was an equal volume of DMSO, and the blank control group was an equal volume of a culture medium, with 4 replicate wells for each concentration. After the A549, HepG2, HCT116, HT-29, hela, and MCF-7 cells were treated with the test drugs for 72 hours, the cells in each well were fixed with 50% (m/v) cold trichloroacetic acid (TCA) and stained with SRB. Then […] of Tris solution was added, and the OD value at the wavelength of 540 nm was measured using a microplate reader. For K562 cells, after 72 hours of treatment with the test drugs, […] of 5 mg/mL MTT was added, and the cells were incubated at 37° C. for 4 hours. Next, […] of a triplet solution (10% SDS, 5% isobutanol, 12 mM HCl) was added, followed by further incubation for 12 to 20 hours. The OD value at the wavelength of 570 nm was measured using a microplate reader.
# (§5) The tumor cell growth inhibition rate was calculated according to the following equation: […]
# (§6) in the equation, • OD540 control well is the absorbance of the control group; • OD540 dosing well is the absorbance of the test group.
# (§7) IC50 values of the test drugs (calculated by GraphPad Prism 5 software) were the means of the results of triplicate experiments.
# [2] = system: human leukemia cell line K562; experiment: In vitro tumor cell proliferation inhibition assay (MTT method), K562; format: cell-based; details: 72 hours; for IC50: mean of triplicate experiments, read-out: IC50 against K562
# Description: as §1, §2, §3, §4, §5, §6, §7
# [3] = system: human cervical cancer cell line hela; experiment: In vitro tumor cell proliferation inhibition assay (SRB method), hela; format: cell-based; details: 72 hours; for IC50: SRB, mean of triplicate experiments, read-out: IC50 against hela
# Description: as §1, §2, §3, §4, §5, §6, §7
# [4] = system: human lung cancer cell line A549; experiment: In vitro tumor cell proliferation inhibition assay (SRB method), A549; format: cell-based; details: 72 hours; for IC50 / inhibition at 10 µM: SRB; for IC50: mean of triplicate experiments, read-out: IC50 against A549; for inhibition at 10 µM: test compounds 10 μM
# Description: as §1, §2, §3, §4, §5, §6, §7
# [5] = system: human liver cancer cell line HepG2; experiment: In vitro tumor cell proliferation inhibition assay (SRB method), HepG2; format: cell-based; details: 72 hours; for IC50 / inhibition at 10 µM: SRB; for IC50: mean of triplicate experiments, read-out: IC50 against HepG2; for inhibition at 10 µM: test compounds 10 μM
# Description: as §1, §2, §3, §4, §5, §6, §7
# A549 cells = experiment: A549 cell-BALB/c nude mouse subcutaneous tumor transplantation experiment; format: in vivo, BALB/c nude mice; details: A549 model, test compound 0.5 mg/mL at 10 mL/kg tail vein, 15 times, 6 times
# Description: (§8) BALB/c nude mice were subcutaneously inoculated with A549, HCT116 and HT-29 cells to establish tumor transplantation models. • Solvent Control Group: 2% DMSO+normal saline+sodium carbonate (the molar ratio of the compound to sodium carbonate is 1:2) • 5-fluorouracil control group: 5-fluorouracil injection (20 mg/kg);
# (§9) Test compound group: 1 mg of a test compound was fully dissolved in […] DMSO, and then diluted with normal saline to 0.5 mg/mL. 2 mL was used each time, freshly prepared before use on the same day.
# (§10) Eight mice were in each group.
# (§11) The solvent control group and the test compound group were administered at a dose of 10 mL/kg via tail vein injection (the dose for each administration was calculated based on the body weight on that day), 5 times a week, for a total of 15 times. The animals were euthanized after the last administration.
# (§12) The 5-fluorouracil control group was administered twice a week for a total of 6 times.
# (§13) The body weight and tumor diameter were measured twice a week during the administration period. Tumors and the spleen were removed and weighed after euthanasia. The tumor volume, relative tumor volume (RTV), relative tumor growth rate (T/C %), tumor volume inhibition rate (IRTV%), and tumor weight inhibition rate (IRTW%) were calculated. Data for animals that died accidentally were only listed but excluded from statistical analysis.
# [6] = system: human colon cancer cell line HT-29; experiment: In vitro tumor cell proliferation inhibition assay (SRB method), HT-29; format: cell-based; details: 72 hours; for IC50: SRB, mean of triplicate experiments, read-out: IC50 against HT-29
# Description: as §1, §2, §3, §4, §5, §6, §7
# HCT116 cells = experiment: HCT116 cell-BALB/c nude mouse subcutaneous tumor transplantation experiment; format: in vivo, BALB/c nude mice; details: HCT116 model; test compound 0.5 mg/mL at 10 mL/kg tail vein, 15 times; 5-fu 20 mg/kg, 6 times
# Description: as §8, §9, §10, §11, §12, §13
# [7] = system: human colon cancer cell line HCT116; experiment: In vitro tumor cell proliferation inhibition assay (SRB method), HCT116; format: cell-based; details: for IC50: HCT-116, 72 hours, mean of triplicate experiments, read-out: IC50 against HCT116; for IC50 / inhibition at 10 µM: SRB; for inhibition at 10 µM: HCT-116, test compounds 10 μM
# Description: as §1, §2, §3, §4, §5, §6, §7
# [8] = system: A549, HepG2, HCT116, HT-29, K562, hela, and MCF-7 cell lines; experiment: In vitro tumor cell proliferation inhibition assay, summary over all 7 types of cells; format: cell-based; details: Homo sapiens
# Description: as §1, §2, §3, §4, §5, §6, §7
# [9] = read-out: Inhibition rate on A549
# [10] = read-out: Inhibition rate on HepG2
# [11] = 72 hours, read-out: Inhibition rate on HCT116
# [12] = upper bound over A549, HepG2, HCT116, HT-29, K562, hela, MCF-7
IC50 [1] [µM],IC50 [2] [µM],IC50 [3] [µM],IC50 [4] [µM],IC50 [5] [µM],IC50 [6] [µM],IC50 [7] [µM],Compound,"inhibition at 10 µM [4, 9] [%]","inhibition at 10 µM [5, 10] [%]","inhibition at 10 µM [7, 11] [%]",also measured
4.6,> 50,23.8,2.73,8.31,16.6,4.77,"C=CC(=O)NCc1c(O)c(O)c(O)c(CNC(=O)C=C)c1C(=O)O [Compound I-1, N-(2,3,4-trihydroxy-5-acrylamidomethyl-6-carboxybenzyl) acrylamide]",89.3,57.5,92.3,"average tumor volume at the end of the experiment (A549 cells; 5 times a week, 5-fu 20 mg/kg twice a week): 539.48 mm^3; inhibitory effect (inhibition rate of average tumor weight, FIG. 6) (A549 cells; 5-fu 20 mg/kg): 33.25%; inhibitory effect (inhibition rate of average tumor weight, FIG. 6) (HCT116 cells): 35.13%"
> 50,> 50,> 50,4.84,> 50,> 50,> 50,"CC(=O)NCc1c(O)c(O)c(O)c(CNC(C)=O)c1C(=O)O [Compound I-2, N-(2,3,4-trihydroxy-5-acetamidomethyl-6-carboxybenzyl) acetamide]",69.9,18.4,82,
9.73,14.5,9.3,7.4,6.04,10.7,5.12,"Cc1c(O)c(CNC(=O)CCl)cc(CNC(=O)CCl)c1O [Compound I-3, N-(2,4-dihydroxy-3-methyl-5-chloroacetamidomethylbenzyl) chloroacetamide]",95.9,92.3,76.5,"IC50 [8, 12]: < 35.5 µM"
3.74,6.93,5.64,6.32,4.06,9.39,5.32,"Cc1c(C)c(CNC(=O)CCl)c(C)c(CNC(=O)CCl)c1O [Compound I-5, N-(2,3,6-trimethyl-4-hydroxy-5-chloroacetamidomethylbenzyl) chloroacetamide]",89.5,95.3,97.3,"IC50 [8, 12]: < 35.5 µM; IC50 ([8]; upper bound over all 7 types of cells, compound I-5): < 9.4 µM"
,,,,,,,"C=CC(=O)NCc1c(C(=O)OC)cc(O)c(O)c1O [Compound I-8, N-(2,3,4-trihydroxy-6-carbomethoxy-benzyl) acrylamide]",28.5,54.8,30.4,
,,,,,,,"C=CC(=O)NCc1c(C(=O)OCCC)cc(O)c(O)c1O [Compound I-9, N-(2,3,4-trihydroxy-6-propoxycarbonyl-benzyl) acrylamide]",27.5,51.1,29.1,
,,,,,,,"COC(=O)c1cc(O)c(O)c(O)c1CNC(C)=O [Compound I-10, N-(2,3,4-trihydroxy-6-carbomethoxy-benzyl) acetamide]",38.2,55.8,34.8,
,,,,,,,"CCCOC(=O)c1cc(O)c(O)c(O)c1CNC(C)=O [Compound I-11, N-(2,3,4-trihydroxy-6-propoxycarbonyl-benzyl) acetamide]",32.5,55.5,38.2,
,,,,,,,"COC(=O)c1cc(O)c(O)c(O)c1CNC(=O)CCl [Compound I-12, N-(2,3,4-trihydroxy-6-carbomethoxy-benzyl) chloroacetamide]",40.9,55.9,47.6,
,,,,,,,"CCCOC(=O)c1cc(O)c(O)c(O)c1CNC(=O)CCl [Compound I-13, N-(2,3,4-trihydroxy-6-propoxycarbonyl-benzyl) chloroacetamide]",29.6,55,37.8,
,,,,,,,"COC(=O)c1cc(O)c(O)c(O)c1CNC(=O)c1ccccc1 [Compound I-14, N-(2,3,4-trihydroxy-6-carbomethoxy-benzyl) benzamide]",37.7,1.56,34.1,
,,,,,,,C=CC(=O)NCc1cc(CNC(=O)C=C)c(O)c(C(C)=O)c1O [Compound I-15],7.05,33.5,27.7,
,,,,,,,C=CC(=O)NCc1cc(C(C)=O)c(O)c(CNC(=O)C=C)c1O [Compound I-16],4.84,13,33.9,
2.93,18,3.01,7.77,3.05,8.6,2.74,C=CC(=O)NCc1c(O)c(Br)c(O)c(CNC(=O)C=C)c1C(=O)O [Compound I-17],95.8,90.3,91.5,"IC50 [8, 12]: < 35.5 µM"
,,,,,,,C=CC(=O)NCc1cc(C(=O)OC)cc(O)c1O [Compound I-18],10.5,73,22.5,
,,,,,,,"COc1cccc2c1C(=O)c1c(O)c3c(c(O)c1C2=O)C[C@@](O)(C(=O)CO)C[C@@H]3O[C@H]1C[C@H](N)[C@H](O)[C@H](C)O1 [doxorubicin, reference compound]",,,,"inhibition at 1 µM ([1]; MCF7, doxorubicin 1 μM, 72 hours, read-out: Inhibition rate on MCF-7): 69.1%; inhibition at 1 µM ([2]; doxorubicin 1 μM, read-out: Inhibition rate on K562): 40.8%; inhibition at 1 µM ([3]; doxorubicin 1 μM, read-out: Inhibition rate on hela): 44.3%; inhibition at 1 µM ([4]; doxorubicin 1 μM, read-out: Inhibition rate on A549): 88.8%; inhibition at 1 µM ([5]; doxorubicin 1 μM, read-out: Inhibition rate on HepG2): 78.1%; inhibition at 1 µM ([6]; doxorubicin 1 μM, read-out: Inhibition rate on HT-29): 95.3%; inhibition at 1 µM ([7]; HCT-116, doxorubicin 1 μM, 72 hours, read-out: Inhibition rate on HCT116): 60.9%"
